21 compounds from US20160002204A1 (Board of Regents, The University of Texas System, priority 2014, published 2016) can be followed below.

Experiment [1] deals with T1, GLS1 (purified recombinant human GAC) (Homo sapiens, UniProt O94925).
T1 sequence (O94925 55-598 isoform O94925-3 limits assumed): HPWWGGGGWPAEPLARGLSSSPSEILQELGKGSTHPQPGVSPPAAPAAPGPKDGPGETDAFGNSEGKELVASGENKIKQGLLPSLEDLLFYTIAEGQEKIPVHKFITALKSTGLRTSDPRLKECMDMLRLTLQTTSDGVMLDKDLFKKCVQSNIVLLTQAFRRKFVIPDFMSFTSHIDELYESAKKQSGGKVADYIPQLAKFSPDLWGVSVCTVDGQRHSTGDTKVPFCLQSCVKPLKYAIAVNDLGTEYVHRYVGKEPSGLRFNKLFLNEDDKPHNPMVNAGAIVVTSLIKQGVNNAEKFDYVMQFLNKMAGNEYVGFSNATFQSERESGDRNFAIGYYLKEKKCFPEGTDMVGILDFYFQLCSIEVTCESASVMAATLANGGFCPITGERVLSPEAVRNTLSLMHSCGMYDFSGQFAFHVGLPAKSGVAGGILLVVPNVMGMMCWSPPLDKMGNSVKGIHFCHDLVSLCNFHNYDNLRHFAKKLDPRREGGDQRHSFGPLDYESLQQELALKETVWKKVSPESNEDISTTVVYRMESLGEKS
The experiment can be described thus: GLS1 enzymatic activity assay (dual-coupled, Amplex UltraRed/resorufin). In kind it is biochemical. The gist of the method:
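GAC activity measured by coupling glutamate to glutamate oxidase and HRP, generating resorufin from Amplex UltraRed. Enzyme (2 nM) preincubated with 50 mM potassium phosphate 10 min at room temperature, then inhibitor 10 min; 1 mM glutamine substrate, 1% DMSO. Fluorescence 530/590 nm, kinetic or 20-min endpoint; IC50 from four-parameter logistic fit.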

The next experiment relates to A549 cells. The experiment can be described thus: A549 proliferation (viability) assay, Cell Titer Fluor, 72 hours. The conditions noted are these: Homo sapiens. In kind it is cell-based. The gist of the method: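 Compound was added to A549 cells (1000/well, pre-grown 24 h in RPMI 1640 plus 10% dialyzed FBS) at 0.5% DMSO and left 72 h under 37 °C, 5% CO2, ambient O2. Live-cell fluorescence (Cell Titer Fluor) gave the EC50.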

In general, IC50 refers to the point on the concentration scale where inhibition reaches its midpoint. Usually EC50 stands for the concentration that produces a half-maximal response. Higher therefore signals weaker potency. For `O=C(Nc1ccn(CCC(F)Cn2cc(C(=O)NCc3cccc(OC(F)(F)F)c3)nn2)c(=O)c1F)OC1CCC1` (stereo not drawn) [Example 376, cyclobutyl N-(3-fluoro-1-{3-fluoro-4-[4-({[3-(trifluoro-methoxy)phenyl]methyl}carbamoyl)-1H-1,2,3-triazol-1-yl]butyl}-2-oxo-1,2-dihydropyridin-4-yl)carbamate], the concentration for half-maximal inhibition (IC50) in experiment [1] was under 100 nM. Further, the EC50 in the experiment with A549 cells is under 100 nM.
Regarding `O=C(Nc1ccn(CCC(F)Cn2cc(C(=O)NCc3cc(C(F)(F)F)ccn3)nn2)c(=O)c1F)OC1CCC1` (stereo not drawn) [Example 377, cyclobutyl N-(3-fluoro-1-{3-fluoro-4-[4-({[4-(trifluoromethyl)pyridin-2-yl]methyl}carbamoyl)-1H-1,2,3-triazol-1-yl]butyl}-2-oxo-1,2-dihydropyridin-4-yl)carbamate], the IC50 in experiment [1] is under 100 nM. The compound further had a 50% effective concentration (EC50) in the experiment with A549 cells of under 100 nM.
As to `O=C(Cc1ccccc1)Nc1ccn(CCC(F)Cn2cc(C(=O)NCc3ccc(C(F)(F)F)cn3)nn2)c(=O)c1F` (stereo not drawn) [Example 379, 1-{2-fluoro-4-[3-fluoro-2-oxo-4-(2-phenylacetamido)-1,2-dihydropyridin-1-yl]butyl}-N-{[5-(trifluoromethyl)pyridin-2-yl]methyl}-1H-1,2,3-triazole-4-carboxamide], in experiment [1], the concentration for half-maximal inhibition (IC50) is under 100 nM. Also, the EC50 in the experiment with A549 cells is 100 to 500 nM.
In the same order, the values of `N#Cc1ccc(CNC(=O)c2cn(CC(F)CCn3ccc(NC(=O)Cc4ccccc4)c(F)c3=O)nn2)cn1` (stereo not drawn) [Example 380, N-[(6-cyanopyridin-3-yl)methyl]-1-{2-fluoro-4-[3-fluoro-2-oxo-4-(2-phenylacetamido)-1,2-dihydropyridin-1-yl]butyl}-1H-1,2,3-triazole-4-carboxamide] are 100 to 500 nM and 500 to 5000 nM.
Consider `O=C(Cc1ccccc1)Nc1ccn(CCC(F)Cn2cc(C(=O)NCC3CCCC3)nn2)c(=O)c1F` (stereo not drawn) [Example 381, N-(cyclopentylmethyl)-1-{2-fluoro-4-[3-fluoro-2-oxo-4-(2-phenylacetamido)-1,2-dihydropyridin-1-yl]butyl}-1H-1,2,3-triazole-4-carboxamide], for which the IC50 in experiment [1] was in the range of 100 to 500 nM. Moreover, in the experiment with A549 cells, the 50% effective concentration (EC50) was in the range of 500 to 5000 nM.
In the same order, the values of `Nc1ccn(CCC(F)Cn2cc(C(=O)NCc3cccc(OC(F)(F)F)c3)nn2)c(=O)n1` (stereo not drawn) [Example 382, 1-[4-(4-amino-2-oxo-1,2-dihydropyrimidin-1-yl)-2-fluorobutyl]-N-{[3-(trifluoromethoxy)phenyl]methyl}-1H-1,2,3-triazole-4-carboxamide] are 500 to 5000 nM and over 5000 nM.
In the same order, the values of `O=C(Nc1ccn(CCC(F)Cn2cc(C(=O)NCc3cccc(OC(F)(F)F)c3)nn2)c(=O)n1)OC1CCCCC1` (stereo not drawn) [Example 383, cyclohexyl N-(1-{3-fluoro-4-[4-({[3-(trifluoromethoxy)phenyl]methyl}carbamoyl)-1H-1,2,3-triazol-1-yl]butyl}-2-oxo-1,2-dihydropyrimidin-4-yl)carbamate] are under 100 nM and under 100 nM.
In the same order, the values of `CC(C)OC(=O)Nc1ccn(CCC(F)Cn2cc(C(=O)NCc3cccc(OC(F)(F)F)c3)nn2)c(=O)n1` (stereo not drawn) [Example 384, propan-2-yl N-(1-{3-fluoro-4-[4-({[3-(trifluoromethoxy)phenyl]methyl}carbamoyl)-1H-1,2,3-triazol-1-yl]butyl}-2-oxo-1,2-dihydro-pyrimidin-4-yl)carbamate] are under 100 nM and 100 to 500 nM.
As to `O=C(Nc1ccn(CCC(F)Cn2cc(C(=O)NCc3cccc(OC(F)(F)F)c3)nn2)c(=O)n1)OC1CCC1` (stereo not drawn) [Example 385, cyclobutyl N-(1-{3-fluoro-4-[4-({[3-(trifluoromethoxy)phenyl]methyl}carbamoyl)-1H-1,2,3-triazol-1-yl]butyl}-2-oxo-1,2-dihydro-pyrimidin-4-yl)carbamate], the half-maximal inhibitory concentration (IC50) in experiment [1] is under 100 nM. Also, the 50% effective concentration (EC50) in the experiment with A549 cells fell in the range of 100 to 500 nM.
For `O=C(CC1CCCC1)Nc1cnn(CCC(F)Cn2cc(C(=O)NCc3cccc(OC(F)(F)F)c3)nn2)c(=O)c1` (stereo not drawn) [Example 386, 1-(4-(4-(2-cyclopentylacetamido)-6-oxopyridazin-1(6H)-yl)-2-fluorobutyl)-N-(3-(trifluoromethoxy)benzyl)-1H-1,2,3-triazole-4-carboxamide] the same measures were under 100 nM and 100 to 500 nM.
For `O=C(CC1CCCC1)Nc1ccn(CCC(F)Cn2cc(C(=O)NCc3ncccc3F)nn2)c(=O)c1F` (stereo not drawn) [Example 387, 1-{4-[4-(2-cyclopentylacetamido)-3-fluoro-2-oxo-1,2-dihydropyridin-1-yl]-2-fluorobutyl}-N-[(3-fluoropyridin-2-yl)methyl]-1H-1,2,3-triazole-4-carboxamide] the same measures were under 100 nM and under 100 nM.
For `O=C(CC1CCCC1)Nc1ccn(CCC(F)Cn2cc(C(=O)NCc3ccc(CF)nc3)nn2)c(=O)c1F` (stereo not drawn) [Example 388, 1-{4-[4-(2-cyclopentylacetamido)-3-fluoro-2-oxo-1,2-dihydropyridin-1-yl]-2-fluorobutyl}-N-{[6-(fluoromethyl)pyridin-3-yl]methyl}-1H-1,2,3-triazole-4-carboxamide] the same measures were under 100 nM and under 100 nM.
For the compound `O=C(CC1CCC1)Nc1ccn(CCC(F)Cn2cc(C(=O)NCc3ccc(OC(F)(F)F)cn3)nn2)c(=O)c1F` (stereo not drawn) [Example 389, 1-{4-[4-(2-cyclobutylacetamido)-3-fluoro-2-oxo-1,2-dihydropyridin-1-yl]-2-fluorobutyl}-N-{[5-(trifluoromethoxy)pyridin-2-yl]methyl}-1H-1,2,3-triazole-4-carboxamide], the concentration for half-maximal inhibition (IC50) in experiment [1] was under 100 nM. In the experiment with A549 cells, this compound returned a concentration for a half-maximal effect (EC50) of under 100 nM.
With `O=C(CC1CCC1)Nc1ccn(CCC(F)Cn2cc(C(=O)NCc3ccc(C(F)(F)F)cn3)nn2)c(=O)c1F` (stereo not drawn) [Example 390, 1-{4-[4-(2-cyclobutylacetamido)-3-fluoro-2-oxo-1,2-dihydropyridin-1-yl]-2-fluorobutyl}-N-{[5-(trifluoromethyl)pyridin-2-yl]methyl}-1H-1,2,3-triazole-4-carboxamide], the IC50 in experiment [1] lay within 100 to 500 nM. For the same compound, in the experiment with A549 cells, the concentration for a half-maximal effect (EC50) is under 100 nM.
In the case of `NC(=O)c1cn(CC(F)CCn2ccc(NC(=O)CC3CCC3)c(F)c2=O)nn1` (stereo not drawn) [Example 391, 1-{4-[4-(2-cyclobutylacetamido)-3-fluoro-2-oxo-1,2-dihydropyridin-1-yl]-2-fluorobutyl}-1H-1,2,3-triazole-4-carboxamide], the 50% inhibitory concentration (IC50) in experiment [1] was 500 to 5000 nM. The EC50 in the experiment on A549 cells was over 5000 nM.
For `O=C(Cc1ccccc1)Nc1ccn(CCC(F)Cn2cc(C(=O)NCc3cc(Cl)ccc3F)nn2)c(=O)c1F` (stereo not drawn) [Example 392, N-[(5-chloro-2-fluorophenyl)methyl]-1-{2-fluoro-4-[3-fluoro-2-oxo-4-(2-phenylacetamido)-1,2-dihydropyridin-1-yl]butyl}-1H-1,2,3-triazole-4-carboxamide] the same measures were under 100 nM and under 100 nM.
As for `O=C(CC1CCCC1)Nc1ccn(CCC(F)Cn2cc(C(=O)NCc3ccccn3)nn2)c(=O)c1F` (stereo not drawn) [Example 393, 1-{4-[4-(2-cyclopentylacetamido)-3-fluoro-2-oxo-1,2-dihydropyridin-1-yl]-2-fluorobutyl}-N-(pyridin-2-ylmethyl)-1H-1,2,3-triazole-4-carboxamide], in experiment [1], the concentration for half-maximal inhibition (IC50) is under 100 nM. Moreover, the half-maximal effective concentration (EC50) in the experiment with A549 cells was under 100 nM.
As to `O=C(CC1CCCC1)Nc1ccn(CCC(F)Cn2cc(C(=O)NCc3ccc(C(F)(F)F)cn3)nn2)c(=O)c1F` (stereo not drawn) [Example 394, 1-{4-[4-(2-cyclopentylacetamido)-3-fluoro-2-oxo-1,2-dihydropyridin-1-yl]-2-fluorobutyl}-N-{[5-(trifluoromethyl)pyridin-2-yl]methyl}-1H-1,2,3-triazole-4-carboxamide], the 50% inhibitory concentration (IC50) in experiment [1] is under 100 nM. This compound also came in with a concentration giving a half-maximal response (EC50) in the experiment on A549 cells of under 100 nM.
For the compound `O=C(CC1CCCC1)Nc1ccn(CCC(F)Cn2cc(C(=O)NCc3cc(Cl)ccc3F)nn2)c(=O)c1F` (stereo not drawn) [Example 395, N-[(5-chloro-2-fluorophenyl)methyl]-1-{4-[4-(2-cyclopentylacetamido)-3-fluoro-2-oxo-1,2-dihydropyridin-1-yl]-2-fluorobutyl}-1H-1,2,3-triazole-4-carboxamide], in experiment [1], the half-maximal inhibitory concentration (IC50) is under 100 nM. Moreover, the half-maximal effective concentration (EC50) in the experiment on A549 cells is under 100 nM.
As to `Cc1ccc(CNC(=O)c2cn(CC(F)CCn3ccc(NC(=O)OC4CCC4)c(F)c3=O)nn2)cn1` (stereo not drawn) [Example 396, cyclobutyl N-{3-fluoro-1-[3-fluoro-4-(4-{[(6-methylpyridin-3-yl)methyl]carbamoyl}-1H-1,2,3-triazol-1-yl)butyl]-2-oxo-1,2-dihydropyridin-4-yl}carbamate], the IC50 in experiment [1] lay within 100 to 500 nM. For the same compound, the EC50 with A549 cells is under 100 nM.
In the same order, the values of `O=C(Nc1ccn(CCC(F)Cn2cc(C(=O)NCc3cccc(C(F)(F)F)n3)nn2)c(=O)c1F)OC1CCC1` (stereo not drawn) [Example 397, cyclobutyl N-(3-fluoro-1-{3-fluoro-4-[4-({[6-(trifluoromethyl)pyridin-2-yl]methyl}carbamoyl)-1H-1,2,3-triazol-1-yl]butyl}-2-oxo-1,2-dihydropyridin-4-yl)carbamate] are 100 to 500 nM and 100 to 500 nM.
